PubChem BioAssay (NCI)
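All cell lines were grown in 96-well plates and treated with compound for 48 hours. TGI marks complete inhibition of growth.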

Tests used:
Assay in all cases: DTP human tumour cell line panel, 48 h
[1] = tested on: HOP-92 NSCLC
[2] = tested on: HOP-62 NSCLC
[3] = tested on: SN12C renal
[4] = tested on: EKVX NSCLC
[5] = tested on: DMS 114 small cell lung
[6] = tested on: SNB-19 CNS
[7] = tested on: CCRF-CEM leukemia
[8] = tested on: NCI-H522 lung
[9] = tested on: KM20L2 colon
[10] = tested on: ACHN renal
[11] = tested on: SNB-75 CNS
[12] = tested on: NCI-H23 lung
[13] = tested on: SK-MEL-2 melanoma
[14] = tested on: SF-295 CNS
[15] = tested on: SK-OV-3 ovarian
[16] = tested on: CAKI-1 renal
[17] = tested on: TK-10 renal
[18] = tested on: OVCAR-5 ovarian
[19] = tested on: OVCAR-3 ovarian
[20] = tested on: A549 NSCLC
[21] = tested on: UACC-62 melanoma
[22] = tested on: SF-268 CNS
[23] = tested on: DLD-1 colon
[24] = tested on: UACC-257 melanoma
[25] = tested on: SR leukemia
[26] = tested on: SNB-78 CNS
[27] = tested on: K-562 leukemia
[28] = tested on: HCC-2998 colon
[29] = tested on: NCI-H460 lung
[30] = tested on: SK-MEL-5 melanoma
[31] = tested on: UO-31 renal
[32] = tested on: SF-539 CNS
[33] = tested on: OVCAR-4 ovarian
[34] = tested on: MOLT-4 leukemia
[35] = tested on: HCT-116 colon
[36] = tested on: LXFL 529 NSCLC
[37] = tested on: SW-620 colon
[38] = tested on: HT29 colon
[39] = tested on: U251 CNS
[40] = tested on: NCI-H226 lung
[41] = tested on: RPMI-8226 leukemia
[42] = tested on: HL-60(TB) leukemia
[43] = tested on: DMS 273 small cell lung
[44] = tested on: LOX IMVI melanoma
[45] = tested on: RXF 393 renal
[46] = tested on: M19-MEL melanoma
[47] = tested on: HCT-15 colon
[48] = tested on: IGROV1 ovarian
[49] = tested on: M14 melanoma
[50] = tested on: MALME-3M melanoma
[51] = tested on: OVCAR-8 ovarian
[52] = tested on: HOP-18 NSCLC
[53] = tested on: KM12 colon
[54] = tested on: COLO 205 colon
[55] = tested on: SK-MEL-28 melanoma
[56] = tested on: A498 renal

CN1Cc2ccccc2C2(COc3ccccc3C2=O)C1 (stereo not drawn)
TGI [1]: 93.6 µM
TGI [2]: > 100 µM
TGI [3]: > 100 µM
TGI [4]: > 100 µM
TGI [5]: > 100 µM
TGI [6]: > 100 µM
TGI [7]: > 100 µM
TGI [8]: > 100 µM
TGI [9]: > 100 µM
TGI [10]: > 100 µM
TGI [11]: > 100 µM
TGI [12]: > 100 µM
TGI [13]: > 100 µM
TGI [14]: > 100 µM
TGI [15]: > 100 µM
TGI [16]: > 100 µM
TGI [17]: > 100 µM
TGI [18]: > 100 µM
TGI [19]: > 100 µM
TGI [20]: > 100 µM
TGI [21]: > 100 µM
TGI [22]: > 100 µM
TGI [23]: > 100 µM
TGI [24]: > 100 µM
TGI [25]: 87.8 µM
TGI [26]: > 100 µM
TGI [27]: > 100 µM
TGI [28]: > 100 µM
TGI [29]: > 100 µM
TGI [30]: > 100 µM
TGI [31]: > 100 µM
TGI [32]: > 100 µM
TGI [33]: > 100 µM
TGI [34]: > 100 µM
TGI [35]: > 100 µM
TGI [36]: > 100 µM
TGI [37]: > 100 µM
TGI [38]: > 100 µM
TGI [39]: > 100 µM
TGI [40]: > 100 µM
TGI [41]: > 100 µM
TGI [42]: > 100 µM
TGI [43]: > 100 µM
TGI [44]: > 100 µM
TGI [45]: > 100 µM
TGI [46]: > 100 µM
TGI [47]: > 100 µM
TGI [48]: > 100 µM
TGI [49]: > 100 µM
TGI [50]: > 100 µM
TGI [51]: > 100 µM
TGI [52]: > 100 µM

COC1CCC(CO)OO1 (stereo not drawn)
TGI [1]: > 100 µM
TGI [2]: > 100 µM
TGI [5]: 36.6 µM
TGI [6]: > 100 µM
TGI [7]: > 100 µM
TGI [8]: 27.4 µM
TGI [9]: > 100 µM
TGI [10]: > 100 µM
TGI [11]: > 100 µM
TGI [12]: > 100 µM
TGI [13]: > 100 µM
TGI [14]: 73.6 µM
TGI [15]: > 100 µM
TGI [18]: > 100 µM
TGI [19]: 80.5 µM
TGI [21]: > 100 µM
TGI [22]: > 100 µM
TGI [24]: > 100 µM
TGI [25]: > 100 µM
TGI [26]: 66.9 µM
TGI [27]: > 100 µM
TGI [29]: > 100 µM
TGI [53]: > 100 µM
TGI [31]: > 100 µM
TGI [32]: > 100 µM
TGI [33]: > 100 µM
TGI [34]: > 100 µM
TGI [35]: > 100 µM
TGI [36]: > 100 µM
TGI [38]: > 100 µM
TGI [39]: > 100 µM
TGI [41]: 93.1 µM
TGI [54]: > 100 µM
TGI [55]: > 100 µM
TGI [42]: 58 µM
TGI [45]: > 100 µM
TGI [46]: > 100 µM
TGI [56]: 72.2 µM
TGI [48]: 75.8 µM
TGI [49]: > 100 µM
TGI [50]: > 100 µM
